“Also recorded” adds a separate entry of the source. Like-named read-outs stand apart in the source and are kept apart here.
Key:
[1] = test system: OCI-AML3 cells; experiment: Induction of apoptosis by cleaved caspase-3 cytometry; assay type: cell-based; conditions: 72 h
[2] = test system: 12 p53 wild-type, patient-derived mesothelioma cell lines; experiment: 72-hour Alamar Blue proliferation assay, panel; assay type: cell-based; conditions: Homo sapiens
Protocol: (§1) For all cell lines the number of viable cells was determined by measuring the conversion of Rezasurin (Alamar Blue) to Resorufin in response to mitochondrial activity of the viable cells. Alamar Blue™ (AbD Serotec/Bio-Rad, Hercules, CA, USA) was added to 10% of the well volume (20 μl/well) towards the end of the treatment period and incubated for a further 8-24 h. The plate was then read at 535 nm (excitation) and 590 nm (emission) on a SpectraMax Gemini reader (Molecular Devices, Sunnyvale, CA, USA). Each well was calculated as percentage of the mean DMSO control.

[3] = test system: Caki-1 renal cancer cell line with BAP1 knock-down; experiment: CAKI1 shBAP1 apoptotic assay (Annexin V); assay type: cell-based, human; conditions: 72 hours with 1 uM Compound 1; BAP1 loss versus control
Text: 3 independent shRNAs targeting BAP1 were used and BAP1 knock-down levels achieved with 2 independent shRNAs.

[4] = test system: #24 mesothelioma cell line; experiment: Induction of activated caspase-3; assay type: cell-based, human; conditions: 72-hour treatment with 1 μM Compound 1
Protocol: (§2) In certain embodiments, the MDM2 antagonist induces apoptosis of the cancer cell. Apoptosis may typically be mediated via activated caspase-3. Induction of apoptosis can be determined by detecting cells that are positive for activated caspase-3 following 72-hour treatment with 1 μM of the MDM2 antagonist. […] In certain embodiments, at least 10%, at least 20% or at least 30% of cells staining positive for activated caspase-3 is an indicator of induced apoptosis. […] Active caspase-3 staining kits are commercially-available, for example the “Cleaved Caspase-3 Staining Kit (Red)” available from Abcam (Cambridge, UK) as catalogue number ab65617. The Invitrogen Cell Event dye (C10423) may also be used.
(§3) The extent of Compound 1-induced apoptosis is not predicted from the IC50 values obtained from the Alarmar Blue proliferation assays (Table 1), thus emphasising the impact of grouping cell lines specifically based on their apoptotic potential for subsequent bioinformatics analyses described in the following section.

[5] = test system: #35 mesothelioma cell line; experiment: Induction of activated caspase-3; assay type: cell-based, human; conditions: 72-hour treatment with 1 μM Compound 1
Protocol: as §2, §3

[6] = test system: #26 mesothelioma cell line; experiment: Induction of activated caspase-3; assay type: cell-based, human; conditions: 72-hour treatment with 1 μM Compound 1
Protocol: as §2, §3

[7] = test system: MESO-50T mesothelioma cell line; experiment: Induction of activated caspase-3; assay type: cell-based, human; conditions: 72-hour treatment with 1 μM Compound 1
Protocol: as §2, §3

[8] = test system: #40 mesothelioma cell line; experiment: Induction of activated caspase-3; assay type: cell-based, human; conditions: 72-hour treatment with 1 μM Compound 1
Protocol: as §2, §3

[9] = test system: #19 mesothelioma cell line; experiment: Induction of activated caspase-3; assay type: cell-based, human; conditions: 72-hour treatment with 1 μM Compound 1
Protocol: as §2, §3

[10] = test system: #12 mesothelioma cell line; experiment: Induction of activated caspase-3; assay type: cell-based, human; conditions: 72-hour treatment with 1 μM Compound 1
Protocol: as §2, §3

[11] = test system: MESO-7T mesothelioma cell line; experiment: Induction of activated caspase-3; assay type: cell-based, human; conditions: 72-hour treatment with 1 μM Compound 1
Protocol: as §2, §3

[12] = test system: #2 mesothelioma cell line; experiment: Induction of activated caspase-3; assay type: cell-based, human; conditions: 72-hour treatment with 1 μM Compound 1
Protocol: as §2, §3

[13] = test system: MESO-29T mesothelioma cell line; experiment: Induction of activated caspase-3; assay type: cell-based, human; conditions: 72-hour treatment with 1 μM Compound 1
Protocol: as §2, §3

[14] = test system: #18 mesothelioma cell line; experiment: Induction of activated caspase-3; assay type: cell-based, human; conditions: 72-hour treatment with 1 μM Compound 1
Protocol: as §2, §3

[15] = test system: #52 mesothelioma cell line; experiment: Induction of activated caspase-3; assay type: cell-based, human; conditions: 72-hour treatment with 1 μM Compound 1
Protocol: as §2, §3

[16] = test system: primary mesothelioma cell line Meso #24 with BAP1 knockdown; experiment: Apoptosis after BAP1 shRNA knockdown; assay type: cell-based, human; conditions: BAP1 knockdown versus control
Text: BAP1 shRNA was used on primary mesothelioma cell line Meso #24 to achieves table BAP1 knockdown.

[17] = test system: 210 p53 wild-type cancer cell lines; experiment: Cell line panel screen, CellTiter-Glo, 3 days; assay type: cell-based; conditions: ANOVA, adjusted p-value<0.02
Protocol: Genomic features for these cell lines such as somatic mutations, copy number alterations and hypermethylation were obtained from the list of Cancer Functional Events as reported by Garnett et al (2016). ANOVA method was used to identify significant associations of genomics features to Compound 1 drug response.
Cancer cells were cultured in appropriate medium.
Each cell line was tested in triplicates.

[18] = test system: #24 mesothelioma cell line; experiment: 72-hour Alamar Blue proliferation assay; assay type: cell-based; conditions: Homo sapiens, read-out: Mean Compound 1 Proliferation IC50 (μM), cell line #24
Protocol: as §1

[19] = test system: #35 mesothelioma cell line; experiment: 72-hour Alamar Blue proliferation assay; assay type: cell-based; conditions: Homo sapiens, read-out: Mean Compound 1 Proliferation IC50 (μM), cell line #35
Protocol: as §1

[20] = test system: MESO-50T mesothelioma cell line; experiment: 72-hour Alamar Blue proliferation assay; assay type: cell-based; conditions: Homo sapiens, read-out: Mean Compound 1 Proliferation IC50 (μM), cell line MESO-50T
Protocol: as §1

[21] = test system: #40 mesothelioma cell line; experiment: 72-hour Alamar Blue proliferation assay; assay type: cell-based; conditions: Homo sapiens, read-out: Mean Compound 1 Proliferation IC50 (μM), cell line #40
Protocol: as §1

[22] = test system: #19 mesothelioma cell line; experiment: 72-hour Alamar Blue proliferation assay; assay type: cell-based; conditions: Homo sapiens, read-out: Mean Compound 1 Proliferation IC50 (μM), cell line #19
Protocol: as §1

[23] = test system: #12 mesothelioma cell line; experiment: 72-hour Alamar Blue proliferation assay; assay type: cell-based; conditions: Homo sapiens, read-out: Mean Compound 1 Proliferation IC50 (μM), cell line #12
Protocol: as §1

[24] = test system: #2 mesothelioma cell line; experiment: 72-hour Alamar Blue proliferation assay; assay type: cell-based; conditions: Homo sapiens, read-out: Mean Compound 1 Proliferation IC50 (μM), cell line #2
Protocol: as §1

[25] = test system: MESO-29T mesothelioma cell line; experiment: 72-hour Alamar Blue proliferation assay; assay type: cell-based; conditions: Homo sapiens, read-out: Mean Compound 1 Proliferation IC50 (μM), cell line MESO-29T
Protocol: as §1

[26] = test system: #52 mesothelioma cell line; experiment: 72-hour Alamar Blue proliferation assay; assay type: cell-based; conditions: Homo sapiens, read-out: Mean Compound 1 Proliferation IC50 (μM), cell line #52
Protocol: as §1

[27] = test system: human patient-derived mesothelioma cell lines; experiment: Induction of activated caspase-3, panel; assay type: cell-based; conditions: all 12 cell lines
Protocol: as §2, §3

[28] = test system: SN40R2; experiment: Protocol B: CellTiter-Glo cell viability assay; conditions: read-out: SN40R2 (Protocol B) % inhibition at 10, Protocol B
[29] = test system: SJSA-1; experiment: Protocol B: CellTiter-Glo cell viability assay
[30] = test system: SN40R2 (p53 mutated, MDM2 amplified osteosarcoma); experiment: Protocol A: SRB growth inhibition assay; conditions: read-out: SN40R2 IC50 (μM) (Protocol A)
[31] = test system: multiple myeloma (MM) cells; conditions: in vitro and ex vivo; cited from earlier work
[32] = test system: human leukaemia models; conditions: mice; by inducing MDM2 degradation; cited from earlier work
[33] = test system: cancer cell lines; conditions: cited from earlier work
[34] = test system: tumour growth; conditions: cited from earlier work
[35] = read-out: SJSA1 IC50 (μM) (Protocol B), Protocol B

SMILES: C[C@@H]1CN(CC(=O)N2CC(C)(C)c3nc(CO)c(Cc4ccc(F)cc4)cc32)[C@@H](CN2CCOC[C@H]2C)CN1 [ASTX660, 1-{6-[(4-fluorophenyl)methyl]-5-(hydroxymethyl)-3,3-dimethyl-1H,2H,3H-pyrrolo[3,2-b]pyridin-1-yl}-2-[(2R,5R)-5-methyl-2-{[(3R)-3-methylmorpholin-4-yl]methyl}piperazin-1-yl]ethan-1-one, reference compound]
- level of apoptosis (cleaved caspase-3) ([1]; 0.1 μM COMPOUND 1 with 1 μM ASTX660 and 1 ng/ml TNF-alpha): sensitises the OCI-AML3 line to apoptosis induction by COMPOUND 1

SMILES: CC[C@@](O)(c1cc(F)c2c(c1)C(=O)N([C@H](c1ccc(Cl)cc1)[C@H](C)C(=O)O)[C@@]2(OC)c1ccc(Cl)cc1)C1CCOCC1 [Compound 1, (2S,3S)-3-(4-chlorophenyl)-3-[(1R)-1-(4-chlorophenyl)-7-fluoro-5-[(1S)-1-hydroxy-1-(oxan-4-yl)propyl]-1-methoxy-3-oxo-2,3-dihydro-1H-isoindol-2-yl]-2-methylpropanoic acid]
- IC50 ([2]; in 7 of the 12 cell lines): < 100 nM
- IC50 ([2]; in 11 cell lines): < 400 nM
- level of apoptosis (cleaved caspase-3) ([1]; 0.1 μM COMPOUND 1 alone): did not induce a high level of apoptosis; also recorded: does not induce substantial levels of cell death by apoptosis
- % of cells undergoing apoptosis (Annexin V) [3]: increased apoptosis
- apoptosis (cells positive for activated caspase-3) [4]: < 40%
- apoptosis (cells positive for activated caspase-3) [5]: < 40%
- apoptosis (cells positive for activated caspase-3) [6]: < 40%
- apoptosis (cells positive for activated caspase-3) [7]: < 40%
- cells staining positive for activated caspase-3 [8]: > 40%
- cells staining positive for activated caspase-3 [9]: > 40%
- cells staining positive for activated caspase-3 [10]: > 40%
- cells staining positive for activated caspase-3 [11]: > 40%
- cells staining positive for activated caspase-3 [12]: > 40%
- apoptosis (cells positive for activated caspase-3) [13]: < 40%
- apoptosis (cells positive for activated caspase-3) [14]: < 40%
- cells staining positive for activated caspase-3 [15]: > 40%
- apoptosis after Compound 1 treatment [16]: increased apoptosis
- sensitivity of cell lines with CDKN2A loss versus wild-type CDKN2A [17]: enhanced sensitivity
- IC50 [18]: 0.094 µM
- IC50 [19]: 0.045 µM
- IC50 [20]: 0.067 µM
- IC50 [21]: 0.0092 µM
- IC50 [22]: 0.17 µM
- IC50 [23]: 0.078 µM
- IC50 [24]: 0.062 µM
- IC50 [25]: > 10 µM
- IC50 [26]: 0.076 µM
- activated caspase-3 induction [27]: increase in activated caspase-3 was observed in all cell lines

SMILES: CCC(O)(c1cc(F)c2c(c1)C(=O)N(Cc1ncc(Cl)cc1O)[C@@]2(OCCO)c1ccc(Cl)cc1)c1cn(C)cn1 (stereo partly drawn) [Example 443, (3R)-2-[(5-chloro-3-hydroxypyridin-2-yl)methyl]-3-(4-chlorophenyl)-4-fluoro-6-[1-hydroxy-1-(1-methyl-1H-imidazol-4-yl)propyl]-3-(2-hydroxyethoxy)-2,3-dihydro-1H-isoindol-1-one]
- inhibition at 10 µM [28]: 3%
- IC50 ([29]; Homo sapiens, SJSA-1, read-out: SJSA1 IC50 (μM) (Protocol B), Protocol B): 0.093 µM
- IC50 [30]: 38 µM

SMILES: CCC(O)(c1cc(F)c2c(c1)C(=O)N(Cc1ccc(C#N)cn1)[C@@]2(O[C@H]1CCOC1)c1ccc(Cl)cc1)C1(F)CCOCC1 (stereo partly drawn) [Example 446, 6-{[(1R)-1-(4-chlorophenyl)-7-fluoro-5-[1-(4-fluorooxan-4-yl)-1-hydroxypropyl]-3-oxo-1-[(3S)-oxolan-3-yloxy]-2,3-dihydro-1H-isoindol-2-yl]methyl}pyridine-3-carbonitrile]
- IC50 [29, 35]: 0.023 µM
- IC50 [30]: 29 µM

SMILES: CCC(O)(CN1CCN(C)CC1)c1cc(F)c2c(c1)C(=O)N(Cc1ncc(Cl)cn1)[C@@]2(O[C@H]1CCOC1)c1ccc(Cl)cc1 (stereo partly drawn) [Example 522, (3R)-3-(4-chlorophenyl)-2-[(5-chloropyrimidin-2-yl)methyl]-4-fluoro-6-[2-hydroxy-1-(4-methylpiperazin-1-yl)butan-2-yl]-3-[(3S)-oxolan-3-yloxy]-2,3-dihydro-1H-isoindol-1-one]
- inhibition at 10 µM [28]: 24%
- IC50 [29, 35]: 0.048 µM

SMILES: c1ccc2c(CCNc3ccc(Nc4ccncc4)cc3)c[nH]c2c1 [JNJ 26854165]
- activity against multiple myeloma (MM) cells [31]: potent activity

SMILES: O=C(O)C(F)(F)F.O=C1CCC(N2Cc3c(C#CCCCNC(=O)c4ccc(NC(=O)[C@@H]5NC6(CCCCC6)[C@@]6(C(=O)Nc7cc(Cl)ccc76)[C@H]5c5cccc(Cl)c5F)cc4)cccc3C2=O)C(=O)N1 (stereo partly shown) [LE-004]
- growth inhibition in human leukaemia models [32]: efficiently inhibited growth

SMILES: CC(C)(C)C[C@@H]1N[C@@H](C(=O)N[C@H]2CC[C@H](O)CC2)[C@H](c2cccc(Cl)c2F)[C@]12C(=O)Nc1cc(Cl)ccc12 [MI-773]
- cell growth inhibition [33]: potently inhibits cell growth

SMILES: COc1cc(C(N)=O)ccc1NC(=O)[C@@H]1N[C@@H](CC(C)(C)C)C2(C(=O)Nc3cc(Cl)ccc32)[C@H]1c1cccc(Cl)c1F (stereo partly shown) [RO-8994]
- tumour growth inhibition [34]: inhibit tumour growth
